Source: PubChem BioAssay (NCI)
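All cell lines were grown in 96-well plates and treated with compound for 48 hours. The concentration for 50% growth inhibition is given as GI50. TGI is the concentration that stops growth completely.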

These compounds were tested on MDA-MB-468 breast (assay: NCI-60 cell line screen, 48 h).
In the case of `C=C(c1ccc(OC)c(/C=C/C(=O)c2ccc3c(c2)OCO3)c1)c1cc(OC)c(OC)c(OC)c1`, the GI50 is reported as 1650 nM and the TGI is reported as 8920 nM. `Cc1cccc2sc(/N=C(\N)C(Br)Br)nc12` was tested, and the GI50 was 1630 nM and the TGI was 4580 nM. In the case of `Cc1onc(-c2ccccc2)c1C(=O)N/N=C/c1cc(Cl)cc(Cl)c1O`, the GI50 is reported as 3890 nM and the TGI is reported as 42900 nM. `Cc1cc2nc(NCCN)n(Cc3ccc(F)c(Cl)c3)c2cc1C` showed a GI50 of 3610 nM and a TGI of 15800 nM. `COc1ccc(Cn2cc3c(c2-c2cc(OC)c(OC)c(OC)c2)CCCc2cnoc2-3)cc1` was tested, and the GI50 was 563 nM and the TGI was over 100000 nM. `CC(C)(C)C(=O)OCOP(=O)(NCc1ccccc1)C1CCCN(O)C1=O` (configuration not stated) gave a GI50 of 1430 nM and a TGI of 5070 nM. With `COc1ccc(C(=O)C(CN(C)C)CN(C)C)cc1` the GI50 was 1470 nM and the TGI was 4310 nM. With `CCc1ccc(Oc2c(-c3ccc(OCc4ccc(Cl)cc4)cc3O)n[nH]c2C(F)(F)F)cc1` the GI50 was 1730 nM and the TGI was 3960 nM. In the case of `NS(=O)(=O)OC[C@H]1C[C@@H](Nc2ccnc3cc(-c4cccc(SC(F)(F)F)c4)nn23)[C@H](O)[C@@H]1O`, the GI50 is reported as under 10 nM and the TGI is reported as under 12.7 nM. `O=C1NC(=C(Cl)Cl)/C(=N/S(=O)(=O)N2CCCCC2)N1` gave a GI50 of 2390 nM and a TGI of 13300 nM. With `CCOC(=O)c1c(NC(=O)c2ccc(C(F)(F)F)cc2)sc2c(CN3CCN(C)CC3)c(O)ccc12` the GI50 was 1780 nM and the TGI was 3930 nM. In the case of `O=C1Nc2c(ccc(Cl)c2Cl)/C1=C/c1cc(Br)c(O)c(Br)c1`, the GI50 is reported as 2960 nM and the TGI is reported as over 26300 nM. For `COc1ccc(C2(Cl)c3ccccc3N(c3ccccc3)c3ccccc32)cc1`, the GI50 was 391 nM and the TGI was 2100 nM. `CCCCCCCCCCCCCCCC1=NCC[N+]1(CCO)CCO` gave a GI50 of 2130 nM and a TGI of 7030 nM. In the case of `COc1cc(C(=O)NC2CCc3cc(OC)c(OC)c(OC)c3-c3ccc(OC)c(=O)cc32)cc(OC)c1OC` (configuration not stated), the GI50 is reported as 85.3 nM and the TGI is reported as over 100000 nM. Compound `O=c1c2ccccc2sc2c(NCCCNCCO)nc3ccccc3c12` has a GI50 of 1520 nM and a TGI of 3120 nM. For `COc1ccccc1Nc1cc(O)c2c(=O)cc(-c3ccccc3)oc2c1`, the GI50 was 1500 nM and the TGI was 6420 nM. `CNC(=O)c1c(C)oc2cc(Oc3ncnc4cc(OC)c(OC)cc34)ccc12` gave a GI50 of over 100000 nM and a TGI of over 100000 nM. `Clc1c(Cl)[n+](Cc2ccc3ccccc3c2)cn1Cc1ccc2ccccc2c1` showed a GI50 of 668 nM and a TGI of 2280 nM. `O=C(CSc1nc2c(n1Nc1ccccc1)-c1ccccc1SC2)Nc1nc(-c2ccc(Cl)cc2)cs1` showed a GI50 of 18000 nM and a TGI of over 100000 nM. With `CN[C@H]1CN(c2ccc3c(=O)c(C(=O)O)cn(-c4nccs4)c3n2)C[C@@H]1OC` the GI50 was 822 nM and the TGI was 2860 nM. Compound `Fc1ccc(-c2cc3nc(C(Cl)Cl)nc(-c4ccco4)n3n2)cc1` has a GI50 of 242 nM and a TGI of 793 nM. `C=CN(C(=O)N1CCN(c2cc3c(cc2F)c(=O)c(C(=O)O)cn3C2CC2)CC1)c1nc(-c2ccc(OC)cc2)cs1` gave a GI50 of 3070 nM and a TGI of 28000 nM. In the case of `Cc1cc2c(C(=O)NC[C@H](C)c3ccccc3)c(O)c(O)cc2c(O)c1-c1c(C)cc2c(C(=O)NC[C@H](C)c3ccccc3)c(O)c(O)cc2c1O`, the GI50 is reported as 596 nM and the TGI is reported as 3380 nM. Work on `Oc1c(Cl)cc(Cl)c(Cl)c1CNCCNCc1c(O)c(Cl)cc(Cl)c1Cl` yielded a GI50 of 917 nM and a TGI of 5850 nM. `Cc1c(C)n(CCCN2CCN(C)CC2)c2ccc(Oc3cccc(C(=O)N4CCN(CCc5ccc(F)cc5)CC4)c3)cc12` gave a GI50 of 1160 nM and a TGI of 2470 nM. `COc1ccc2ncn(-c3cc(O[C@H](C)c4ccccc4C(F)(F)F)c(C(N)=O)s3)c2c1` gave a GI50 of 67 nM and a TGI of 1000 nM. For `COc1cc2c(c(OC)c1OC)-c1ccc(OC)c(=O)cc1C(NC(=O)COc1ccccc1)CC2` (configuration not stated), the GI50 was under 10 nM and the TGI was 59400 nM. `C[C@@H](Oc1cc(-n2cnc3ccc(OC4CCN(C)CC4)cc32)sc1C(N)=O)c1ccccc1Cl` showed a GI50 of 4.41 nM and a TGI of 202 nM. For `COc1cc(/C=C/c2cc(/C=C/c3ccc(O)c(OC)c3)n(C(=O)c3ccc(Cl)cc3)n2)ccc1O`, the GI50 was 2640 nM and the TGI was 7900 nM. `CCOC(=O)c1cc(C(=O)c2ccc(OC)cc2)n2ccc(/C=C/c3cc[n+](CC(=O)c4ccc(OC)cc4)cc3)cc12` was tested, and the GI50 was 1710 nM and the TGI was 3630 nM. Work on `CC[C@H](C)[C@H](NC(=O)[C@H]1CCCCN1C)C(=O)N(C)[C@H](C[C@@H](OC(C)=O)c1cccc(C(=O)N[C@@H](Cc2ccccc2)C[C@H](C)C(=O)OC)n1)C(C)C` yielded a GI50 of 0.917 nM. Compound `CNC(=O)c1ccc(N2C(=S)N(c3cnc(C#N)c(C(F)(F)F)c3)C(=O)C23CCC3)cc1F` has a GI50 of 49600 nM and a TGI of over 100000 nM. Compound `OC(CNc1ccnc2cc(Cl)ccc12)CNc1ccnc2cc(Cl)ccc12` has a GI50 of 1430 nM and a TGI of 2930 nM. Compound `COc1cc2c(cc1OC(C)C)[C@H](c1ccc(Cl)cc1)N(c1ccc(N(C)CC3CCC(N4CCN(C)C(=O)C4)CC3)cc1)C(=O)C2` (some centres not stated) has a GI50 of 3370 nM and a TGI of 8930 nM. Work on `Cc1ccc(O)c(NC(=O)c2cccc(Nc3ccnc(C(F)(F)F)c3)c2)c1` yielded a GI50 of 3190 nM and a TGI of 54900 nM. In the case of `CC(=O)O[C@@H]1C2CCC3C(CC[C@@]4(C)C3CC[C@@H]4C(C)N(C)C)[C@@]2(C)CC[C@@H]1NC(=O)C=C(C)C` (some centres not stated), the GI50 is reported as 1400 nM and the TGI is reported as 3060 nM. Compound `O=c1oc2ccc(I)cc2c(=O)n1-c1ccc(Br)cc1F` has a GI50 of 1450 nM and a TGI of 4880 nM. `COc1ccc(/C=C\c2cc(OC)c(OC)c(OC)c2)cc1OCC(=O)Nc1nc2ccc(F)cc2s1` was tested, and the GI50 was 3680 nM and the TGI was over 100000 nM. In the case of `Fc1ccc(-c2c(-c3ccncc3)nc3n2CCS3)cc1`, the GI50 is reported as over 10400 nM and the TGI is reported as over 25000 nM. Compound `CCOC(=O)C1=CCCC[C@H]1S(=O)(=O)Nc1ccc(F)cc1Cl` has a GI50 of 10800 nM and a TGI of 42400 nM. In the case of `CC(C)C[C@H](NC(=O)CNC(=O)c1cc(Cl)ccc1Cl)B(O)O`, the GI50 is reported as under 13.7 nM and the TGI is reported as 21.7 nM. `O=C(N/N=C/c1ccc([N+](=O)[O-])o1)c1[nH]c2ccc(Br)cc2c1-c1ccccc1` showed a GI50 of 304 nM and a TGI of 1700 nM. For `O=C1N[C@@H]2[C@@H](O)[C@@H](O)[C@H](O)C[C@H]2c2cc3c(c(O)c21)OCCO3`, the GI50 was 95.5 nM and the TGI was 455 nM.
